Results: patent US8916575B2, “Quinazoline derivatives for the treatment of viral infections and further diseases” (Janssen R&D Ireland, priority 2011, dated 2014)

What was measured:
human TLR8 = target: T1, human TLR8 (Homo sapiens, UniProt Q9NR97); assay: TLR8 wild type NFκB-luc cellular reporter assay; type: cell-based; set-up: unit not given here; conditions: HEK293 NFκB-luc reporter, 6 hours incubation; second part of table
T1 construct: expressed in transfected cells; host or cells: HEK293
T1 sequence (Q9NR97 27-1041): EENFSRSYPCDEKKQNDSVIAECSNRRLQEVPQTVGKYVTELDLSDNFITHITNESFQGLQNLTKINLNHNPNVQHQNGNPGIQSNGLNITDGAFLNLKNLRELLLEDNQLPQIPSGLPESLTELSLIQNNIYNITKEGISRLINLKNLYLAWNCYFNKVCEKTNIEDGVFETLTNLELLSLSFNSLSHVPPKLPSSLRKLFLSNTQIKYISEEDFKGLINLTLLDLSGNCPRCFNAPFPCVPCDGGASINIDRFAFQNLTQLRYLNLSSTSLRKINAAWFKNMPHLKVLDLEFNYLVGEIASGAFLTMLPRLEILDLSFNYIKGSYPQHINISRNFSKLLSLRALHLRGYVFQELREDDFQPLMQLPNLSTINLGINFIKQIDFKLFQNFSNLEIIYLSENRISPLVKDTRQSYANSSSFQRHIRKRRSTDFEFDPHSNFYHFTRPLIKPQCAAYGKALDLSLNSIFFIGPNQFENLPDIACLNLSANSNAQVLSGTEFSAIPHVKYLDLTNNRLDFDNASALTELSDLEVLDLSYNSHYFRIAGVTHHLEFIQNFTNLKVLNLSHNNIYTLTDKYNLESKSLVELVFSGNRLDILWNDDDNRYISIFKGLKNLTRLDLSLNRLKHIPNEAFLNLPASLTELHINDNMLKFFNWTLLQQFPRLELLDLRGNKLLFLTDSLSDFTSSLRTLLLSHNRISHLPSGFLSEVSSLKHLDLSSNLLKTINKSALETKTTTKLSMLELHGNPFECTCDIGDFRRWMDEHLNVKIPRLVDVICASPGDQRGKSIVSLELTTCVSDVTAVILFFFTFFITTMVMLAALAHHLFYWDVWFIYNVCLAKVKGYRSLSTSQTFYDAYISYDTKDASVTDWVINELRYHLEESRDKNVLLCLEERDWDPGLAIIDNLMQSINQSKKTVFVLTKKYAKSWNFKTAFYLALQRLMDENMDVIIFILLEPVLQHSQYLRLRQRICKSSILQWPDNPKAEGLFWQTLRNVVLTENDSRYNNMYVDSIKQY
Method in brief: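 HEK293 cells transiently transfected with wild-type or second-LRR-deletion (dIRR2) TLR7/TLR8 plasmid plus NFκB-luc, 24 h; compound added for 6 h at 37 °C. Luciferase read-out, quadruplicate dose responses. LEC = lowest concentration giving effect at least two-fold above assay SD.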

[1] = tested on: interferon-stimulated responsive elements (ISRE); assay: Activation of ISRE promoter elements by conditioned media from PBMC (HEK-ISREluc); type: cell-based, human; set-up: unit not given here; conditions: compound applied to PBMCs, supernatant transferred to HEK-ISREluc cells, 24 hours
Protocol: The potential of compounds to induce IFN-I was also evaluated by measuring the activation of interferon-stimulated responsive elements (ISRE) by conditioned media from PBMC. The ISRE element of sequence GAAACTGAAACT is highly responsive to the STAT1-STAT2-IRF9 transcription factor, activated upon binding of IFN-I to their receptor IFNAR (Clontech, PT3372-5W). The plasmid pISRE-Luc from Clontech (ref. 631913) contains 5 copies of this ISRE element, followed by the firefly luciferase ORF. A HEK293 cell line stably transfected with pISRE-Luc (HEK-ISREluc) was established to profile of the conditioned PBMC cell culture media.
Briefly, PBMCs were prepared from buffy coats of at least two donors using a standard Ficoll centrifugation protocol. Isolated PBMCs were resuspended in RPMI medium supplemented with 10% human AB serum and 2×10^5 cells/well were dispensed into 384-well plates containing compounds (70 μL total volume). After overnight incubation, 10 μL of supernatant was transferred to 384-well plates containing 5×10^3 HEK-ISREluc cells/well in 30 μL (plated the day before). Following 24 hours of incubation, activation of the ISRE elements was measured by assaying luciferase activity using 40 μL/well Steady Lite Plus substrate (Perkin Elmer) and measured with ViewLux ultraHTS microplate imager (Perkin Elmer). The stimulating activity of each compound on the HEK-ISREluc cells was reported as LEC value, defined as the compound concentration applied to the PBMCs resulting in a luciferase activity at least two fold above the standard deviation of the assay. The LEC in turn indicates the degree of ISRE activation on transfer of a defined amount of PBMC culture medium. Recombinant interferon α-2a (Roferon-A) was used as a standard control compound.

Structure (SMILES) | TLR8-wt (LEC) (human TLR8) | HEK-ISRE luc (LEC) [1]
CCCC[C@@H](CCO)Nc1nc(N)nc2ccc(C)cc12 [Compound 74] | 0.25 | 0.14
CCC[C@@H](CCO)Nc1nc(N)nc2cc(OC)ccc12 [Compound 78] | 0.13 | 0.04
CCC[C@@H](CO)Nc1nc(N)nc2cccc(-c3ccccc3)c12 [Compound 10] | >25 | 2.14
CCCC[C@@H](CO)Nc1nc(N)nc2ccc(C)cc12 [Compound 51] | 0.04 | 0.09
CCC[C@@H](CO)Nc1nc(N)nc2cc(F)c(F)cc12 [Compound 72] | 0.02 | 0.05
CCC[C@@H](CCO)Nc1nc(N)nc2ccc(F)cc12 [Compound 65] | 0.44 | 0.56
CCC[C@@H](CO)Nc1nc(N)nc2cccc(OC)c12 [Compound 58] | 0.03 | 0.04
CCC[C@@H](CO)Nc1nc(N)nc2cc(F)ccc12 [Compound 48] | 0.01 | 0.02
CCC[C@@H](CO)Nc1nc(N)nc2cc(CO)ccc12 [Compound 33] | 0.15 | 0.14
CCCC[C@@H](CCO)Nc1nc(N)nc2cc(F)ccc12 [Compound 82] | 0.03 | 0.04
CCC[C@@H](CO)Nc1nc(N)nc2ccc(C)cc12 [Compound 45] | 0.03 | 0.04
CC[C@H](C)[C@@H](CO)Nc1nc(N)nc2ccc(F)cc12 [Compound 68] | 0.33 | 0.64
CCCC[C@@H](CCO)Nc1nc(N)nc2ccc(F)cc12 [Compound 83] | 0.42 | 0.37
CCCC[C@@H](CO)Nc1nc(N)nc2ccc(OC)cc12 [Compound 77] | 0.62 | 1.93

Further lines, with some results ahead:

TLR8-wt (LEC) (human TLR8) | Structure (SMILES) | HEK-ISRE luc (LEC) [1]
0.01 | CCCC[C@@H](CO)Nc1nc(N)nc2cc(F)ccc12 [Compound 60] | 0.02
0.01 | CCCC[C@@H](CO)Nc1nc(N)nc2cccc(F)c12 [Compound 62] | 0.03
1.83 | CCCCNc1nc(N)nc2ccc(OC)cc12 [Compound 40] | 2.44
0.15 | CCC[C@@H](CCO)Nc1nc(N)nc2c(F)cccc12 [Compound 63] | 0.04
0.24 | CCCCNc1nc(N)nc2cccc(OC(C)C)c12 [Compound 31] | 0.04
0.13 | CCCCNc1nc(N)nc2cccc(Cl)c12 [Compound 41] | 0.17
0.47 | CCCCNc1nc(N)nc2cccc(CCc3ccccc3)c12 [Compound 32] | 0.27
0.30 | CCCCCNc1nc(N)nc2ccc(Br)cc12 [Compound 13] | 0.57
0.25 | CCCCNc1nc(N)nc2c(F)cccc12 [Compound 37] | 0.07
0.04 | CCCC[C@@H](CO)Nc1nc(N)nc2c(F)cccc12 [Compound 59] | 0.05
0.10 | CCCC[C@@H](CCO)Nc1nc(N)nc2cccc(F)c12 [Compound 84] | 0.09
